pEC50: −log10 of the molar value. A value given as a limit tells only on which side of the number the result lay.

Results on one compound are retold here after ChEMBL document CHEMBL5729407, “Substituted piperidine compounds and their use” (2022).

The target in experiment [1] is T1, Orexin receptor type 2 (Homo sapiens, UniProt O43614).
T1 sequence (O43614 whole entry): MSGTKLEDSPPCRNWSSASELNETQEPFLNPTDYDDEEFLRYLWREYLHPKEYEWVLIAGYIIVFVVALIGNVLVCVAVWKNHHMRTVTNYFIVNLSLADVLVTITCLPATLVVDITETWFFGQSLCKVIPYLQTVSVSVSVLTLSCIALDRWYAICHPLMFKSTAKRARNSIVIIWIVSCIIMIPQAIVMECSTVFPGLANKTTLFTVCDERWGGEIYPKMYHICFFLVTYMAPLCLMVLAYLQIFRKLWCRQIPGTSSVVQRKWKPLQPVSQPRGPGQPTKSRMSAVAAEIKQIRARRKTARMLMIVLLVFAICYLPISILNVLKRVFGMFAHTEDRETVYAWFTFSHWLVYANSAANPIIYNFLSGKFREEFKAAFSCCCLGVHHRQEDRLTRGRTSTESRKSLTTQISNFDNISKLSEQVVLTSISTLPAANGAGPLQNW
As to the kind of experiment: (§1) Evaluation of Activity for OX1R and OX2R: HEK293 (human embryonic kidney 293) cells with forced expression of human OX1R (hOX1R) or human OX2R (hOX2R) were seeded in a 384-well microplate (Greiner) at 10,000 per well and cultured for 1 day in high-glucose-DMEM (FujiFilm Corp.—Wako Pure Chemical Industries, Ltd.) containing added 10% FBS ([…]) and 1% Penicillin-Streptomycin (FujiFilm Corp.—Wako Pure Chemical Industries, Ltd.). After removing the medium, 40 μL of assay buffer (20 mM HEPES (Sigma-Aldrich Japan, KK.), Hanks' balanced salt solution (Gibco), 0.1% BSA (Sigma-Aldrich Japan, KK.), 0.1% Pluronic F-127 (Invitrogen)) containing Calcium 4 dye (Molecular Device Corporation) and 2.5 mM probenecid (Sigma-Aldrich Japan, KK.) were added, and the plate was incubated for 60 minutes. After further adding 20 μL of assay buffer, 20 μL of assay buffer containing the test compound was added and reaction was initiated. Change in intracellular calcium ion concentration during the reaction was measured based on the fluorescence intensity ratio in terms of the fluorescence value with wavelength excitation at 480 nm and detection at 540 nm, using FDSS7000 (Hamamatsu Photonics, K.K.). The test compound was dissolved in DMSO to 10 mM, and diluted with assay buffer to a final concentration of from 3×10−11 M to 1×10−7 M (DMSO final concentration of 0.1%). […]. It is filed as cell-based.

Experiment [2] concerns the target T2, Orexin/Hypocretin receptor type 1 (Homo sapiens, UniProt O43613).
T2 sequence (O43613 whole entry): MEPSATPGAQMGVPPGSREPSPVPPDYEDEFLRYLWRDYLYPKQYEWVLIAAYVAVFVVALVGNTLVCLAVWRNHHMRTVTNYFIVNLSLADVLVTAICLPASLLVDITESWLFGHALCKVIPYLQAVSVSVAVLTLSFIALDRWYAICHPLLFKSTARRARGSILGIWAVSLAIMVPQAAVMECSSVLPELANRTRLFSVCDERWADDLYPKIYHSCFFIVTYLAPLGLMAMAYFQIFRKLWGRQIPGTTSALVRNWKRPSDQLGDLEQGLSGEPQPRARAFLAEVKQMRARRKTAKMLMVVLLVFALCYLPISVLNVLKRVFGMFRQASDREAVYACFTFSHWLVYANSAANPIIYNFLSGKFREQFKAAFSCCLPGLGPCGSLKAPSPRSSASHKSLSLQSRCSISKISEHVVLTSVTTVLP
Described as §1. In kind it is cell-based.

For `CO[C@@H]1CN(c2ncc(F)cn2)CC[C@@H]1[C@@H]1C[C@H]2CC[C@@H](C1)N2[C@@H](C(N)=O)C(C)C`, the pEC50 (in general, the negative decadic logarithm of the EC50, by convention in mol/L) was 8.51 in experiment [1] and below 7.00 in experiment [2].
